Experimental data published in patent EP2746402A1, “Method of prognosis of Alzheimers disease and substrates for use therein” (Academisch Medisch Centrum, priority 2013, dated 2014).
Positions of bridges follow the written chain, without caps; N, C: chain ends. Non-standard residues stand in square brackets, D forms with d. Residues, ends and D or L forms follow the SMILES beside them. *: point of attachment. Ileψ(thiazoline)Cys = CC[C@H](C)[C@H](N)C1=N[C@H](C(=O)*)CS1; Sta = CC(C)C[C@H](N)[C@@H](O)CC(=O)O; dOrn = NCCC[C@@H](N)C(=O)O; Isovaleryl = CC(C)CC(=O)*; Cbz = O=C(OCc1ccccc1)*; CH2Cl = ClC*

How the values were obtained:
Assay type in all cases: biochemical
[1] = system: HEK293 cytosolic fractions; test: Quenched Aβ peptide (qAβ) degradation assay in HEK293 cytosolic fractions, with and without protease inhibitors; details: protease inhibitor added to HEK293 cytosolic fractions prior to qAβ, 30 minutes at 4 °C; inhibitor concentrations 20-200 µM; fluorescence at 37°C
Source text: We developed a sensitive Aβ degradation assay by generating a quenched Aβ40 peptide containing a small fluorescein group and a quenching dabcyl group (Reits et al., 2004) flanking the KLVFF sequence present in the middle of the Aβ peptides that is a critical region for aggregation (Fig. 1A) (Tjernberg et al., 1996). A quenched Aβ42 peptide was difficult to synthesize as the peptide was too aggregation-prone during synthesis, preventing efficient labeling with the small fluorophore. […] The qAβ peptides were added to cytoplasmic fractions of mildly lysed HEK293 cells, thereby preventing contamination with extracellular membrane-bound or lysosomal proteases, resulting in an increase in fluorescent signal (Fig. 1B). To identify which proteases play a role in this Aβ clearance machinery, different protease inhibitors were added to the cytosolic fractions prior to adding the qAβ. […]
HEK cells were lysed in 25 µM digitonin (Sigma) in KMH buffer (110 mM KAc, 2 mM MgAc and 20 mM Hepes-KOH, pH 7.2). Human and mouse brain hippocampal tissue was lysed in ± 400 µl (adjusted to the amount of tissue) of homogenization buffer (50 mM Tris/HCl pH 7.5, 250 mM sucrose, 5 mM MgCl2 and freshly added 2 mM ATP, 1 mM DTT and 0.025 % digitonin (Sigma)). Tissue was homogenized on ice in homogenization buffer using a homogenizer. Cell lysates were incubated for 30 minutes on ice and centrifuged for 15 minutes at 14.000 rpm at 4 °C.
HFIP-treated aliquots of Aβ40 were resuspended in DMSO followed by sonication for 10 minutes, immediately before use. 75 ng (340 nM) of quenched Aβ40 was added to 5 µg protein from the cell lysates in KMH buffer (110 mM KAc, 2 mM MgAc and 20 mM Hepes-KOH, pH 7.2) to a total volume of 50 µl. Protease inhibitors (100 µM 1,10-phenanthroline, 200 µM bacitracin, 100 µM E64, 20 µM MG-132, 100 µM puromycin, 100 µM PMSF, 200 µM pepstatin A (all Sigma), 100 µM AAF-CMK, 100 µM amastatin or 50 µM bestatin (Enzo lifesciences AG), 50 µM PAQ-22 (Wako Chemicals), 100 µM Cpp-AAF-pNa (InstruChem), 50 µM PAQ-22 (SopaChem) and 100 µM butabindide (Tocris Bioscience)) were added to the cell lysates and incubated for 30 minutes at 4 °C. Degradation of the peptide was analyzed at 37°C using the FLUOstar OPTIMA (BMG Labtec.).

[2] = system: human hippocampal lysates; test: Quenched Aβ peptide (qAβ) degradation assay in human hippocampal lysates at different Braak stages; details: bacitracin added to hippocampal lysates prior to qAβ; all Braak stages
Method: Since the hippocampus is highly susceptible to Aβ accumulation, we examined whether the ability to degrade Aβ is affected in sporadic (sAD) using human hippocampal tissue of post-mortem brains with varying Braak stages. Included were Braak 0 (control, no AD) and Braak I-VI. When the ability to degrade qAβ was determined for each Braak stage (Fig. 2A, solid bars), a strong decrease in qAβ degradation rate was already observed in Braak stage I (t-test, two-tailed, p=0.03), which further decreased during the progression to Braak stage II (t-test, two-tailed, p=0.01). […] Also oligomerized Aβ was less well degraded with increasing Braak stage (Fig. 2B). AD progression can also be classified by plaque distribution in well defined brain areas giving a particular amyloid score, ranging from O (no plaques) to C. Similar to increasing Braak stages, the rate of qAβ degradation decreased with increasing amyloid score, being significant for hippocampal fractions of brains classified with amyloid score C (t-test, two-tailed, p=0.017) (Fig. 2C). […]
HFIP-treated aliquots of Aβ40 were resuspended in DMSO followed by sonication for 10 minutes, immediately before use. […] Degradation of the peptide was analyzed at 37°C using the FLUOstar OPTIMA (BMG Labtec.).

SH-SY5Y cell lysates = test: Degradation of the quenched 12-mer peptide in SH-SY5Y cell lysates
Source text: To proof that shorter variants of the substrates of the invention may also be used as a suitable substrate to measure IDE activity, we analyzed the degradation of a substrate having the amino acid sequence HQKLVFFACDBC, which contains the KLVFF region flanked by a quenched and fluorophore. In addition, we examined the effect of bacitracine, the inhibitor for IDE, on the degradation of this 12-mer peptide (see Figure 5), as well as its ability to aggregate and form oligomers.
The 12-mer substrate having the amino acid sequence HQKLVFFACDCB (SEQ ID NO:10) containing a fluorophore and quencher was synthesized as described before (Reits et al., 2004), introducing a fluorescein at the cysteine (position 11) and a quenching dabcyl group at the lysine (position 3). The substrate was sonificated immediately before use and added to 5 µg cell lysate. KMH buffer (110 mM KAc, 2 mM MgAc and 20 mM Hepes-KOH, pH 7.2) was added to a total volume of 50 µl. Degradation of the substrate was analyzed at 37°C using the FLUOstar OPTIMA (BMG Labtec.).

Row | Molecule | effect on qAβ degradation [1] | further results
1 | C[C@H](N)C(=O)N[C@@H](C)C(=O)N[C@@H](Cc1ccccc1)C(=O)CCl [AAF-CMK] (H-Ala-Ala-Phe-CH2Cl) | did not show any effect | –
2 | CC(C)C[C@H](NC(=O)[C@H]1O[C@@H]1C(=O)O)C(=O)NCCCCN=C(N)N [E64] | did not show any effect | –
3 | CC(C)C[C@@H](C=O)NC(=O)[C@H](CC(C)C)NC(=O)[C@H](CC(C)C)NC(=O)OCc1ccccc1 [MG132] (Cbz-Leu-Leu-Leu-aldehyde) | did not show any effect | –
4 | O=S(=O)(F)Cc1ccccc1 [PMSF] | did not show any effect | –
5 | CC(C)C[C@@H](N)[C@H](O)C(=O)N[C@H](C(=O)N[C@H](C(=O)N[C@@H](CC(=O)O)C(=O)O)C(C)C)C(C)C [amasatin] | did not show any effect | –
6 | CC[C@H](C)[C@H](N)C1=N[C@H](C(=O)N[C@@H](CC(C)C)C(=O)N[C@H](CCC(=O)O)C(=O)N[C@H](C(=O)N[C@H]2CCCCNC(=O)[C@H](CC(N)=O)NC(=O)[C@@H](CC(=O)O)NC(=O)[C@H](Cc3cnc[nH]3)NC(=O)[C@@H](Cc3ccccc3)NC(=O)[C@H]([C@@H](C)CC)NC(=O)[C@@H](CCCN)NC2=O)[C@@H](C)CC)CS1 [bacitracin] ({Ileψ(thiazoline)Cys}-L[dE]IK[dOrn]I[dF]H[dD]N; lactam 4-C) | reduced | ability to degrade qAβ [2]: strongly reduced; effect on degradation of the 12-mer peptide (SH-SY5Y cell lysates; bacitracine added to SH-SY5Y cell lysates, monomeric 12-mer): inhibited
7 | CC(C)C[C@H](NC(=O)[C@@H](O)[C@H](N)Cc1ccccc1)C(=O)O [bestatin] | did not show any effect | –
8 | CCCCNC(=O)[C@@H]1Cc2ccccc2N1C(=O)[C@@H](N)CC [butabindide] | did not show any effect | –
9 | CC(C)CC(=O)N[C@H](C(=O)N[C@H](C(=O)N[C@@H](CC(C)C)[C@@H](O)CC(=O)N[C@@H](C)C(=O)N[C@@H](CC(C)C)[C@@H](O)CC(=O)O)C(C)C)C(C)C [pepstatin] (Isovaleryl-VV[Sta]A[Sta]-OH) | did not show any effect | –
10 | c1cnc2c(c1)ccc1cccnc12 [phenantroline, 1,10-phenanthroline] | significantly decreased | –
11 | HQKLVFFACDCB [12-mer peptide] | – | plateau level of fluorescence after aggregation (SH-SY5Y cell lysates; 12-mer peptide incubated at 37°C (3 HR in PBS) before addition to SH-SY5Y cell lysates): lower plateau level; degradation of the 12-mer peptide (SH-SY5Y cell lysates; monomeric form added to SH-SY5Y cell lysates): degradation could be observed
